Experimental data reported in patent US6365753B1, “Phthalimides and herbicide containing the same as active component” (Mitsubishi Chemical Corporation, priority 1998, dated 2002).

Experiments:
Format in all cases: in vivo
Echinochloa crus-galli [1] = assay: Submerged treatment test; settings: 10 g/a active ingredient, treated 5th day from sowing, examined on the 2.8th day from treatment, herbicidal index
Protocol: (§1) Alluvial soil from a paddy field was put in a resin-made pot having an area of 200 cm^2. After fertilization, an adequate amount of water was added, and the soil was puddled and leveled. Seeds of Echinochloa crus-galli, Monochoria vaginalis, Rotala indica and Scirpus juncoides were sowed within a layer 0.5 cm below the surface of the soil. Water was poured onto the soil to keep a water depth of 3.5 cm.
(§2) On the 5th day from the sowing, the emulsifiable concentrate containing the compound of the invention as an active ingredient which was prepared in Formulation Example 3 was diluted with water. A prescribed amount of the diluted composition was dropped to the water so as to give 10 g of the active ingredient per are.
(§3) Cultivation was continued in a greenhouse, and the herbicidal effect was examined on the […] from the treatment. The results obtained are shown in Table 4 (the compound numbers in Table 4 correspond to those in Tables 1 and 2). The herbicidal effect was evaluated in terms of herbicidal index based on Y(%) obtained from equation:
(§4) y=[1−(Weight of weeds above the ground in a treated pot)/(Weight of weeds above the ground in a non-treated pot)]×100 (%)

Monochoria vaginalis = assay: Submerged treatment test; settings: 10 g/a active ingredient, treated 5th day from sowing, examined on the 2.8th day from treatment, herbicidal index
Protocol: as §1, §2, §3, §4

Rotala indica = assay: Submerged treatment test; settings: 10 g/a active ingredient, treated 5th day from sowing, examined on the 2.8th day from treatment, herbicidal index
Protocol: as §1, §2, §3, §4

Scirpus juncoides = assay: Submerged treatment test; settings: 10 g/a active ingredient, treated 5th day from sowing, examined on the 2.8th day from treatment, herbicidal index
Protocol: as §1, §2, §3, §4

Chenopodium album = assay: Soil treatment test pre-emergence application; settings: 10 g/a active ingredient, 28th day from treatment, herbicidal index
Protocol: (§5) Volcanic ash soil from a field was put in a resin-made pot having an area of 200 cm^2. After fertilization, soil previously mixed uniformly with the seeds of Digitaria ciliaris, Setaria viridis, Chenopodium album and Polygonum lapathifolium was scattered on the soil. The emulsifiable concentrate comprising the compound of the invention as an active ingredient which was obtained in Formulation Example 3 was diluted with water, and a prescribed amount of the diluted composition was sprayed uniformly to the surface of the soil by means of a small-sized power pressure spray to give 10 g of the active ingredient per are.
(§6) Thereafter, cultivation was continued in a greenhouse, and the herbicidal effect was examined on the 28th day from the treatment. The results obtained are shown in Table 5 (the compound numbers in Table 5 correspond to those in Tables 1 and 2). The herbicidal effect was evaluated based on the same criteria as in Test Example 1.

Digitaria ciliaris = assay: Soil treatment test pre-emergence application; settings: 10 g/a active ingredient, 28th day from treatment, herbicidal index
Protocol: as §5, §6

Polygonum lapathifolium = assay: Soil treatment test pre-emergence application; settings: 10 g/a active ingredient, 28th day from treatment, herbicidal index
Protocol: as §5, §6

Setaria viridis = assay: Soil treatment test pre-emergence application; settings: 10 g/a active ingredient, 28th day from treatment, herbicidal index
Protocol: as §5, §6

Alopeculus aequalis = assay: Foliar treatment test (1) post-emergence application; settings: foliar treatment post-emergence at 1.0- to 2.0-leaf stage, 10 g/a active ingredient, 21st day from treatment; herbicidal index
Protocol: (§7) Volcanic ash soil from a field was put in a resin-made pot having an area of 200 cm^2. After fertilization, the seeds of Brassica juncea, Ipomoea purpurea, Echinochloa crus-galli and Alopeculus aequalis were cast on the soil and uniformly covered with the soil.
(§8) Cultivation was continued in a greenhouse, and when the weeds reached the 1.0- to 2.0-leaf stage, a prescribed amount of the emulsifiable concentrate comprising the compound of the invention as an active ingredient which was prepared in Formulation Example 3 as diluted with water was sprayed uniformly to the weeds by means of a small-sized power pressure spray to give 10 g of the active ingredient per are.
(§9) Thereafter, cultivation was further continued in the greenhouse, and the herbicidal effect was examined on the 21st day from the treatment. The results obtained are shown in Table 6 (the compound numbers in Table 6 correspond to those in Tables 1 and 2). The herbicidal effect was evaluated based on the same criteria as in Test Example 1.

Brassica juncea = assay: as above; settings: foliar treatment post-emergence at 1.0- to 2.0-leaf stage, 10 g/a active ingredient, 21st day from treatment; herbicidal index
Protocol: as §7, §8, §9

Echinochloa crus-galli [2] = assay: as above; settings: foliar treatment post-emergence at 1.0- to 2.0-leaf stage, 10 g/a active ingredient, 21st day from treatment; herbicidal index
Protocol: as §7, §8, §9

Ipomoea purpurea = assay: as above; settings: foliar treatment post-emergence at 1.0- to 2.0-leaf stage, 10 g/a active ingredient, 21st day from treatment; herbicidal index
Protocol: as §7, §8, §9
Note: ranges in brackets are in %.

## CCOC(=O)C(Cl)Cc1cc(N2C(=O)c3ccc(F)cc3C2=O)c(F)cc1Cl (stereo not drawn) [Compound 15, Ethyl 2-Chloro-3-[2-chloro-4-fluoro-5-(4-fluorophthalimido)phenyl]propionate]
Echinochloa crus-galli [1]
  Herbicidal Effect Echinochloa crus-galli: 4 (71-90)
Monochoria vaginalis
  Herbicidal Effect Monochoria vaginalis: 5 (91-100)
Rotala indica
  Herbicidal Effect Rotala indica: 5 (91-100)
Scirpus juncoides
  Herbicidal Effect Scirpus juncoides: 3 (51-70)
Chenopodium album
  Herbicidal Effect Chenopodium album: 5 (91-100)
Digitaria ciliaris
  Herbicidal Effect Digitaria ciliaris: 2 (31-50)
Polygonum lapathifolium
  Herbicidal Effect Polygonum lapathifolium: 5 (91-100)
Setaria viridis
  Herbicidal Effect Setaria viridis: 2 (31-50)
Alopeculus aequalis
  Herbicidal Effect Alopeculus sequalis: 4 (71-90)
Brassica juncea
  Herbicidal Effect Brassica juncea: 5 (91-100)
Echinochloa crus-galli [2]
  Herbicidal Effect Echinochloa crus-galli: 4 (71-90)
Ipomoea purpurea
  Herbicidal Effect Ipompoea-purpurea: 5 (91-100)

## CCCOC(=O)C(Cl)Cc1cc(N2C(=O)c3ccccc3C2=O)c(F)cc1Cl (stereo not drawn) [Compound 6]
Echinochloa crus-galli [1]
  Herbicidal Effect Echinochloa crus-galli: 5 (91-100)
Monochoria vaginalis
  Herbicidal Effect Monochoria vaginalis: 5 (91-100)
Rotala indica
  Herbicidal Effect Rotala indica: 5 (91-100)
Scirpus juncoides
  Herbicidal Effect Scirpus juncoides: 5 (91-100)
Chenopodium album
  Herbicidal Effect Chenopodium album: 5 (91-100)
Digitaria ciliaris
  Herbicidal Effect Digitaria ciliaris: 0 (0-5)
Polygonum lapathifolium
  Herbicidal Effect Polygonum lapathifolium: 5 (91-100)
Setaria viridis
  Herbicidal Effect Setaria viridis: 0 (0-5)
Alopeculus aequalis
  Herbicidal Effect Alopeculus sequalis: 2 (31-50)
Brassica juncea
  Herbicidal Effect Brassica juncea: 5 (91-100)
Echinochloa crus-galli [2]
  Herbicidal Effect Echinochloa crus-galli: 2 (31-50)
Ipomoea purpurea
  Herbicidal Effect Ipompoea-purpurea: 5 (91-100)

## CC(C)OC(=O)C(Cl)Cc1cc(N2C(=O)c3ccccc3C2=O)c(F)cc1Cl (stereo not drawn) [Compound 7, Isopropyl 2-Chloro-3-(2-chloro-4-fluoro-5-phthalimidophenyl)propionate]
Echinochloa crus-galli [1]
  Herbicidal Effect Echinochloa crus-galli: 5 (91-100)
Monochoria vaginalis
  Herbicidal Effect Monochoria vaginalis: 5 (91-100)
Rotala indica
  Herbicidal Effect Rotala indica: 5 (91-100)
Scirpus juncoides
  Herbicidal Effect Scirpus juncoides: 5 (91-100)
Chenopodium album
  Herbicidal Effect Chenopodium album: 5 (91-100)
Digitaria ciliaris
  Herbicidal Effect Digitaria ciliaris: 1 (6-30)
Polygonum lapathifolium
  Herbicidal Effect Polygonum lapathifolium: 5 (91-100)
Setaria viridis
  Herbicidal Effect Setaria viridis: 1 (6-30)
Alopeculus aequalis
  Herbicidal Effect Alopeculus sequalis: 2 (31-50)
Brassica juncea
  Herbicidal Effect Brassica juncea: 5 (91-100)
Echinochloa crus-galli [2]
  Herbicidal Effect Echinochloa crus-galli: 3 (51-70)
Ipomoea purpurea
  Herbicidal Effect Ipompoea-purpurea: 5 (91-100)

## CN(C)C(=O)C(Cl)Cc1cc(N2C(=O)c3ccccc3C2=O)c(F)cc1Cl (stereo not drawn) [Compound 14]
Echinochloa crus-galli [1]
  Herbicidal Effect Echinochloa crus-galli: 5 (91-100)
Monochoria vaginalis
  Herbicidal Effect Monochoria vaginalis: 5 (91-100)
Rotala indica
  Herbicidal Effect Rotala indica: 5 (91-100)
Scirpus juncoides
  Herbicidal Effect Scirpus juncoides: 3 (51-70)
Chenopodium album
  Herbicidal Effect Chenopodium album: 5 (91-100)
Digitaria ciliaris
  Herbicidal Effect Digitaria ciliaris: 3 (51-70)
Polygonum lapathifolium
  Herbicidal Effect Polygonum lapathifolium: 5 (91-100)
Setaria viridis
  Herbicidal Effect Setaria viridis: 3 (51-70)
Alopeculus aequalis
  Herbicidal Effect Alopeculus sequalis: 4 (71-90)
Brassica juncea
  Herbicidal Effect Brassica juncea: 5 (91-100)
Echinochloa crus-galli [2]
  Herbicidal Effect Echinochloa crus-galli: 3 (51-70)
Ipomoea purpurea
  Herbicidal Effect Ipompoea-purpurea: 5 (91-100)

## C=CCNC(=O)C(Cl)Cc1cc(N2C(=O)c3ccccc3C2=O)c(F)cc1Cl (stereo not drawn) [Compound 12]
Echinochloa crus-galli [1]
  Herbicidal Effect Echinochloa crus-galli: 5 (91-100)
Monochoria vaginalis
  Herbicidal Effect Monochoria vaginalis: 5 (91-100)
Rotala indica
  Herbicidal Effect Rotala indica: 5 (91-100)
Scirpus juncoides
  Herbicidal Effect Scirpus juncoides: 1 (6-30)
Chenopodium album
  Herbicidal Effect Chenopodium album: 5 (91-100)
Digitaria ciliaris
  Herbicidal Effect Digitaria ciliaris: 4 (71-90)
Polygonum lapathifolium
  Herbicidal Effect Polygonum lapathifolium: 4 (71-90)
Setaria viridis
  Herbicidal Effect Setaria viridis: 4 (71-90)
Alopeculus aequalis
  Herbicidal Effect Alopeculus sequalis: 2 (31-50)
Brassica juncea
  Herbicidal Effect Brassica juncea: 5 (91-100)
Echinochloa crus-galli [2]
  Herbicidal Effect Echinochloa crus-galli: 4 (71-90)
Ipomoea purpurea
  Herbicidal Effect Ipompoea-purpurea: 5 (91-100)
